{
  "source": "patent US8183271B2",
  "about": "“Tetrazole derivatives and their use for the treatment of cardiovascular diseases” (Bayer Intellectual Property GmbH, priority 2005, dated 2012)",
  "tested_on": "spontaneously hypertensive rats (SH rats)",
  "assay": "Radiotelemetric measurement of blood pressure and heart rate on conscious SH rats",
  "type": "in vivo",
  "conditions": "oral administration of 10 mg/kg",
  "experimental": "A commercially available telemetry system from Data Sciences International DSI, USA, is employed for the measurements on conscious SH rats described below.\nThe system consists of 3 main components: (1) implantable transmitter, (2) receiver which is linked via a multiplexer to a (3) data acquisition computer. The telemetry system makes it possible to record continuously the blood pressure and heart rate on conscious animals in their usual habitat.\nThe investigations are carried out on adult female spontaneously hypertensive rats (SH rats) with a body weight of >200 g. After transmitter implantation, the experimental animals are housed singly in type 3 Makrolon cages. They have free access to standard feed and water. […]\nIn the standard procedure, the following are measured for 10-second periods in each case: (1) systolic blood pressure (SBP), (2) diastolic blood pressure (DBP), (3) mean arterial pressure (MAP) and (4) heart rate (HR).\nMeasurement acquisition is repeated under computer control at 5-minute intervals. The source data obtained as absolute value are corrected in the diagram with the currently measured barometric pressure and stored in individual data. […]\nThe test substances are administered at 9.00 h on the day of the experiment. Following the administration, the parameters described above are measured over 24 hours. […]",
  "data": [
    {"smiles": "CC(C)(C)c1ccc(COc2ccccc2/C=C/C(CCc2ccc(-c3nnn[nH]3)cc2)Cc2ccc(C(=O)O)cc2)cc1", "note": "(single isomer, unassigned) [Example 6, 4-((3E)-4-{2-[(4-tert-Butylbenzyl)oxy]phenyl}-2-{2-[4-(1H-tetrazol-5-yl)phenyl]ethyl}but-3-en-1-yl)benzoic acid]", "values": [
      {"measurement": "Period of blood pressure reduction", "value": 11, "unit": "h"},
      {"measurement": "Reduction in blood pressure", "value": "marked reduction in blood pressure"}
    ]}
  ]
}
